Legend:
Assay type in all cases: in vivo
[1] = system: Ipomoea hederacea (IPOHE); assay: B1 Post-emergence efficacy Test 1; settings: post-emergence application, 1000 g/ha, evaluated after 13 days
Method in brief: (§1)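 Plants sprayed 8 days after sowing with compound at 1000 g/ha in acetone/water (50:50) with 0.5% Tween 20; glasshouse at 24/16 °C day/night, 14 h light, 65% humidity. Damage scored 13 days later on a five-point scale (5=80-100% to 1=0-19%).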

[2] = system: Lolium perenne (LOLPE); assay: B1 Post-emergence efficacy Test 1; settings: post-emergence application, 1000 g/ha, evaluated after 13 days
Method in brief: as §1

[3] = system: Echinochloa crus-galli (ECHCG); assay: B1 Post-emergence efficacy Test 1; settings: post-emergence application, 1000 g/ha, evaluated after 13 days
Method in brief: as §1

[4] = system: Solanum nigrum (SOLNI); assay: B1 Post-emergence efficacy Test 1; settings: post-emergence application, 1000 g/ha, evaluated after 13 days
Method in brief: as §1

[5] = system: Amaranthus retoflexus (AMARE); assay: B1 Post-emergence efficacy Test 1; settings: post-emergence application, 1000 g/ha, evaluated after 13 days
Method in brief: as §1

[6] = system: Setaria faberi (SETFA); assay: B1 Post-emergence efficacy Test 1; settings: post-emergence application, 1000 g/ha, evaluated after 13 days
Method in brief: as §1

[7] = system: cool season plant species; assay: B2 Post-emergence efficacy Test 2, cool season plant species; settings: 15 days after application, 0=no damage, 100=total kill
Method in brief: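 Plants at 12 days post-sowing were sprayed with active ingredient formulated in IF50 plus 0.2% v/v Genapol XO80, then grown in a glasshouse (24/18 °C or 20/16 °C day/night, 16 h light, 65% humidity). Damage scored 15 days after application on 0–100 scale (100 = total kill).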

Cc1nn(C)c(=O)c(-c2c(F)ccc(Cl)c2CCc2ccc(F)cc2)c1OC(=O)C(C)C [Compound 1.125]
percentage damage caused to the plant, five point scale, IPOHE [1]: 5 (5=80-100%)
percentage damage caused to the plant, five point scale, LOLPE [2]: 5 (5=80-100%)
percentage damage caused to the plant, five point scale, ECHCG [3]: 5 (5=80-100%)
percentage damage caused to the plant, five point scale, SOLNI [4]: 5 (5=80-100%)
percentage damage caused to the plant, five point scale, AMARE [5]: 5 (5=80-100%)
percentage damage caused to the plant, five point scale, SETFA [6]: 5 (5=80-100%)
Herbicidal activity (0-100 scale) ALOMY ([7]; 15 g/Ha): 10
Herbicidal activity (0-100 scale) ALOMY ([7]; 30 g/Ha): 10
Herbicidal activity (0-100 scale) ALOMY ([7]; 60 g/Ha): 30
Herbicidal activity (0-100 scale) ALOMY ([7]; 125 g/Ha): 30
Herbicidal activity (0-100 scale) ALOMY ([7]; 250 g/Ha): 60
Herbicidal activity (0-100 scale) ALOMY ([7]; 500 g/Ha): 40
Herbicidal activity (0-100 scale) AVEFA ([7]; 15 g/Ha): 30
Herbicidal activity (0-100 scale) AVEFA ([7]; 30 g/Ha): 40
Herbicidal activity (0-100 scale) AVEFA ([7]; 60 g/Ha): 60
Herbicidal activity (0-100 scale) AVEFA ([7]; 125 g/Ha): 70
Herbicidal activity (0-100 scale) AVEFA ([7]; 250 g/Ha): 70
Herbicidal activity (0-100 scale) AVEFA ([7]; 500 g/Ha): 80
Herbicidal activity (0-100 scale) BEAVA ([7]; 15 g/Ha): 70
Herbicidal activity (0-100 scale) BEAVA ([7]; 30 g/Ha): 60
Herbicidal activity (0-100 scale) BEAVA ([7]; 60 g/Ha): 60
Herbicidal activity (0-100 scale) BEAVA ([7]; 125 g/Ha): 70
Herbicidal activity (0-100 scale) BEAVA ([7]; 250 g/Ha): 70
Herbicidal activity (0-100 scale) BEAVA ([7]; 500 g/Ha): 70
Herbicidal activity (0-100 scale) BROTE ([7]; 15 g/Ha): 0
Herbicidal activity (0-100 scale) BROTE ([7]; 30 g/Ha): 0
Herbicidal activity (0-100 scale) BROTE ([7]; 60 g/Ha): 0
Herbicidal activity (0-100 scale) BROTE ([7]; 125 g/Ha): 0
Herbicidal activity (0-100 scale) BROTE ([7]; 250 g/Ha): 10
Herbicidal activity (0-100 scale) BROTE ([7]; 500 g/Ha): 10
Herbicidal activity (0-100 scale) BRSNN ([7]; 15 g/Ha): 80
Herbicidal activity (0-100 scale) BRSNN ([7]; 30 g/Ha): 80
Herbicidal activity (0-100 scale) BRSNN ([7]; 60 g/Ha): 80
Herbicidal activity (0-100 scale) BRSNN ([7]; 125 g/Ha): 90
Herbicidal activity (0-100 scale) BRSNN ([7]; 250 g/Ha): 90
Herbicidal activity (0-100 scale) BRSNN ([7]; 500 g/Ha): 90
Herbicidal activity (0-100 scale) CHEAL ([7]; 15 g/Ha): 90
Herbicidal activity (0-100 scale) CHEAL ([7]; 30 g/Ha): 90
Herbicidal activity (0-100 scale) CHEAL ([7]; 60 g/Ha): 90
Herbicidal activity (0-100 scale) CHEAL ([7]; 125 g/Ha): 90
Herbicidal activity (0-100 scale) CHEAL ([7]; 250 g/Ha): 90
Herbicidal activity (0-100 scale) CHEAL ([7]; 500 g/Ha): 90
Herbicidal activity (0-100 scale) GALAP ([7]; 30 g/Ha): 20
Herbicidal activity (0-100 scale) GALAP ([7]; 60 g/Ha): 20
Herbicidal activity (0-100 scale) GALAP ([7]; 125 g/Ha): 30
Herbicidal activity (0-100 scale) GALAP ([7]; 250 g/Ha): 40
Herbicidal activity (0-100 scale) GALAP ([7]; 500 g/Ha): 70
Herbicidal activity (0-100 scale) HORVW ([7]; 15 g/Ha): 0
Herbicidal activity (0-100 scale) HORVW ([7]; 30 g/Ha): 0
Herbicidal activity (0-100 scale) HORVW ([7]; 60 g/Ha): 10
Herbicidal activity (0-100 scale) HORVW ([7]; 125 g/Ha): 10
Herbicidal activity (0-100 scale) HORVW ([7]; 250 g/Ha): 10
Herbicidal activity (0-100 scale) HORVW ([7]; 500 g/Ha): 10
Herbicidal activity (0-100 scale) KCHSC ([7]; 15 g/Ha): 0
Herbicidal activity (0-100 scale) KCHSC ([7]; 30 g/Ha): 20
Herbicidal activity (0-100 scale) KCHSC ([7]; 60 g/Ha): 30
Herbicidal activity (0-100 scale) KCHSC ([7]; 125 g/Ha): 50
Herbicidal activity (0-100 scale) KCHSC ([7]; 250 g/Ha): 60
Herbicidal activity (0-100 scale) KCHSC ([7]; 500 g/Ha): 70
Herbicidal activity (0-100 scale) LOLPE ([7]; 15 g/Ha): 40
Herbicidal activity (0-100 scale) LOLPE ([7]; 30 g/Ha): 50
Herbicidal activity (0-100 scale) LOLPE ([7]; 60 g/Ha): 60
Herbicidal activity (0-100 scale) LOLPE ([7]; 125 g/Ha): 70
Herbicidal activity (0-100 scale) LOLPE ([7]; 250 g/Ha): 80
Herbicidal activity (0-100 scale) LOLPE ([7]; 500 g/Ha): 90
Herbicidal activity (0-100 scale) POAAN ([7]; 15 g/Ha): 0
Herbicidal activity (0-100 scale) POAAN ([7]; 30 g/Ha): 10
Herbicidal activity (0-100 scale) POAAN ([7]; 60 g/Ha): 20
Herbicidal activity (0-100 scale) POAAN ([7]; 125 g/Ha): 60
Herbicidal activity (0-100 scale) POAAN ([7]; 250 g/Ha): 70
Herbicidal activity (0-100 scale) POAAN ([7]; 500 g/Ha): 60
Herbicidal activity (0-100 scale) POLCO ([7]; 15 g/Ha): 90
Herbicidal activity (0-100 scale) POLCO ([7]; 30 g/Ha): 90
Herbicidal activity (0-100 scale) POLCO ([7]; 60 g/Ha): 90
Herbicidal activity (0-100 scale) POLCO ([7]; 125 g/Ha): 90
Herbicidal activity (0-100 scale) POLCO ([7]; 250 g/Ha): 90
Herbicidal activity (0-100 scale) POLCO ([7]; 500 g/Ha): 90
Herbicidal activity (0-100 scale) SINAR ([7]; 15 g/Ha): 60
Herbicidal activity (0-100 scale) SINAR ([7]; 30 g/Ha): 60
Herbicidal activity (0-100 scale) SINAR ([7]; 60 g/Ha): 80
Herbicidal activity (0-100 scale) SINAR ([7]; 125 g/Ha): 90
Herbicidal activity (0-100 scale) SINAR ([7]; 250 g/Ha): 90
Herbicidal activity (0-100 scale) SINAR ([7]; 500 g/Ha): 90
Herbicidal activity (0-100 scale) STEME ([7]; 15 g/Ha): 90
Herbicidal activity (0-100 scale) STEME ([7]; 30 g/Ha): 90
Herbicidal activity (0-100 scale) STEME ([7]; 60 g/Ha): 90
Herbicidal activity (0-100 scale) STEME ([7]; 125 g/Ha): 90
Herbicidal activity (0-100 scale) STEME ([7]; 250 g/Ha): 90
Herbicidal activity (0-100 scale) STEME ([7]; 500 g/Ha): 90
Herbicidal activity (0-100 scale) TRZAW ([7]; 15 g/Ha): 0
Herbicidal activity (0-100 scale) TRZAW ([7]; 30 g/Ha): 10
Herbicidal activity (0-100 scale) TRZAW ([7]; 60 g/Ha): 10
Herbicidal activity (0-100 scale) TRZAW ([7]; 125 g/Ha): 20
Herbicidal activity (0-100 scale) TRZAW ([7]; 250 g/Ha): 30
Herbicidal activity (0-100 scale) TRZAW ([7]; 500 g/Ha): 50
Herbicidal activity (0-100 scale) VERPE ([7]; 15 g/Ha): 70
Herbicidal activity (0-100 scale) VERPE ([7]; 30 g/Ha): 70
Herbicidal activity (0-100 scale) VERPE ([7]; 60 g/Ha): 70
Herbicidal activity (0-100 scale) VERPE ([7]; 125 g/Ha): 80
Herbicidal activity (0-100 scale) VERPE ([7]; 250 g/Ha): 80
Herbicidal activity (0-100 scale) VERPE ([7]; 500 g/Ha): 90

— US12162840B2, “Herbicidal compositions” (SYNGENTA PARTICIPATIONS AG, priority 2018, dated 2024)
